Source: ChEMBL document CHEMBL2150986, “Synthesis and biological evaluation of 1-benzylidene-3,4-dihydronaphthalen-2-one as a new class of microtubule-targeting agents” (J Med Chem, 2012)

Legend:
HCT-116 [1] = assay: Cell cycle arrest in human HCT116 cells assessed as accumulation at G2/M phase at 2 uM after 24 hrs by FACS flow cytometry; assay type: functional
Mus musculus [2] = assay: Toxicity in nude BALB/c mouse xenografted with human HT-29 cells assessed as change in liver morphology at 100 to 300 mg/kg, ip qd after 21 days relative to vehicle-treated control; assay type: organism-based; design: dose 100-300 mg/kg, route intraperitoneal; conditions: in vivo, 504 h
Mus musculus [3] = assay: Toxicity in nude BALB/c mouse xenografted with human HT-29 cells assessed as effect on ALT level at 100 mg/kg, ip qd after 21 days (reference value: 28 +/- 0.4 IU/L); assay type: organism-based; design: dose 100 mg/kg, route intraperitoneal; conditions: in vivo, 504 h
MDA-MB-435 = assay: cells; conditions: Homo sapiens, MDA-MB-435, 72 h
Description: Cytotoxicity against human MDA-MB-435 cells after 72 hrs by MTT assay

HT-29 [4] = assay: Antitumor activity against human HT-29 cells xenografted in nude BALB/c mouse assessed as decrease in tumor volume at 150 mg/kg, ip qd measured on day 21 relative to vehicle-treated control; assay type: functional; conditions: route intraperitoneal
Mus musculus [5] = assay: Toxicity in nude BALB/c mouse xenografted with human HT-29 cells assessed as effect on lymphocyte count at 300 mg/kg, ip qd after 21 days (reference value: 15.88 +/- 0.41 x 10^3 mm'-3); assay type: organism-based; design: dose 300 mg/kg, route intraperitoneal; conditions: in vivo, 504 h
Mus musculus [6] = assay: Toxicity in nude BALB/c mouse xenografted with human HT-29 cells assessed as effect on ALP level at 300 mg/kg, ip qd after 21 days (reference value: 107.6 +/- 0.8 IU/L); assay type: organism-based; design: dose 300 mg/kg, route intraperitoneal; conditions: in vivo, 504 h
Mus musculus [7] = assay: Toxicity in nude BALB/c mouse xenografted with human HT-29 cells assessed as body weight change at 150 mg/kg, ip qd after 21 days (reference value: 2.7 g); assay type: organism-based; design: dose 150 mg/kg, route intraperitoneal; conditions: in vivo, 504 h
HT-29 [8] = assay: Antitumor activity against human HT-29 cells xenografted in nude BALB/c mouse assessed as decrease in tumor volume at 300 mg/kg, ip qd measured on day 21 relative to vehicle-treated control; assay type: functional; conditions: route intraperitoneal
HCT-116 [9] = assay: Cell cycle arrest in human HCT116 cells assessed as decrease in accumulation at S phase after 24 hrs by FACS flow cytometry; assay type: functional, cell-based
Mus musculus [10] = assay: Toxicity in nude BALB/c mouse xenografted with human HT-29 cells assessed as mortality at 100 mg/kg, ip qd after 21 days; assay type: organism-based; design: dose 100 mg/kg, route intraperitoneal; conditions: in vivo, 504 h
HT-29 [11] = assay: Antitumor activity against human HT-29 cells xenografted in nude BALB/c mouse assessed as decrease in tumor volume at 100 mg/kg, ip qd measured on day 21 relative to vehicle-treated control; assay type: functional; conditions: route intraperitoneal
HCT-116 [12] = assay: Cell cycle arrest in human HCT116 cells assessed as increase in accumulation at G2/M phase after 24 hrs by FACS flow cytometry; assay type: functional, cell-based
HT-29 [13] = assay: Cytotoxicity against human HT-29 cells after 72 hrs by MTT assay; assay type: functional, cell-based; conditions: HT-29, 72 h
K562 = assay: Cytotoxicity against human K562 cells after 72 hrs by MTT assay; assay type: functional, cell-based; conditions: K562, 72 h
Mus musculus [14] = assay: Toxicity in nude BALB/c mouse xenografted with human HT-29 cells assessed as effect on lymphocyte count at 150 mg/kg, ip qd after 21 days (reference value: 15.88 +/- 0.41 x 10^3 mm'-3); assay type: organism-based; design: dose 150 mg/kg, route intraperitoneal; conditions: in vivo, 504 h
ZR-75-30 = assay: Cytotoxicity against human ZR75-30 cells after 72 hrs by MTT assay; assay type: functional, cell-based; conditions: ZR-75-30, 72 h
Mus musculus [15] = assay: Toxicity in nude BALB/c mouse xenografted with human HT-29 cells assessed as effect on lymphocyte count at 100 mg/kg, ip qd after 21 days (reference value: 15.88 +/- 0.41 x 10^3 mm'-3); assay type: organism-based; design: dose 100 mg/kg, route intraperitoneal; conditions: in vivo, 504 h
Mus musculus [16] = assay: Toxicity in nude BALB/c mouse xenografted with human HT-29 cells assessed as effect on WBC count at 150 mg/kg, ip qd after 21 days (reference value: 25.38 +/- 0.22 x 10^3 mm'-3); assay type: organism-based; design: dose 150 mg/kg, route intraperitoneal; conditions: in vivo, 504 h
Mus musculus [17] = assay: Toxicity in nude BALB/c mouse xenografted with human HT-29 cells assessed as effect on WBC count at 100 mg/kg, ip qd after 21 days (reference value: 25.38 +/- 0.22 x 10^3 mm'-3); assay type: organism-based; design: dose 100 mg/kg, route intraperitoneal; conditions: in vivo, 504 h
Tubulin = Tubulin (Sus scrofa, UniProt P02554+P02550); assay: Inhibition of porcine brain tubulin assembly measured every 1 min for 60 mins by turbidimetric analysis
Mus musculus [18] = assay: Toxicity in nude BALB/c mouse xenografted with human HT-29 cells assessed as effect on platelet count at 300 mg/kg, ip qd after 21 days (reference value: 1509 +/- 34 x 10^3 mm'-3); assay type: organism-based; design: dose 300 mg/kg, route intraperitoneal; conditions: in vivo, 504 h
HCT-116 [19] = assay: Cell cycle arrest in human HCT116 cells assessed as accumulation at G2/M phase at 0.2 uM after 24 hrs by FACS flow cytometry (reference value: 13 %); assay type: functional
Mus musculus [20] = assay: Toxicity in nude BALB/c mouse xenografted with human HT-29 cells assessed as body weight change at 100 mg/kg, ip qd after 21 days (reference value: 2.7 g); assay type: organism-based; design: dose 100 mg/kg, route intraperitoneal; conditions: in vivo, 504 h
Mus musculus [21] = assay: Toxicity in nude BALB/c mouse xenografted with human HT-29 cells assessed as effect on ALP level at 100 mg/kg, ip qd after 21 days (reference value: 107.6 +/- 0.8 IU/L); assay type: organism-based; design: dose 100 mg/kg, route intraperitoneal; conditions: in vivo, 504 h
HT-29 [22] = assay: Antitumor activity against human HT-29 cells xenografted in ip dosed nude BALB/c mouse assessed as decrease in tumor volume administered as qd measured on day 21; assay type: functional, organism-based
Mus musculus [23] = assay: Toxicity in nude BALB/c mouse xenografted with human HT-29 cells assessed as mortality at 300 mg/kg, ip qd after 21 days; assay type: organism-based; design: dose 300 mg/kg, route intraperitoneal; conditions: in vivo, 504 h
HCT-116 [24] = assay: cells; conditions: Homo sapiens, HCT-116, 72 h
Mus musculus [25] = assay: Toxicity in ICR mouse assessed as body weight loss at 600 mg/kg, ip administered on day 1 measured for 10 days relative to vehicle-treated control; assay type: organism-based; design: dose 600 mg/kg, route intraperitoneal; conditions: in vivo, 240 h
HCT-116 [26] = assay: Cell cycle arrest in human HCT116 cells assessed as decrease in accumulation at G1 phase after 24 hrs by FACS flow cytometry; assay type: functional, cell-based
Mus musculus [27] = assay: Toxicity in nude BALB/c mouse xenografted with human HT-29 cells assessed as change in spleen morphology at 100 to 300 mg/kg, ip qd after 21 days relative to vehicle-treated control; assay type: organism-based; design: dose 100-300 mg/kg, route intraperitoneal; conditions: in vivo, 504 h
Mus musculus [28] = assay: Toxicity in nude BALB/c mouse xenografted with human HT-29 cells assessed as effect on WBC count at 300 mg/kg, ip qd after 21 days (reference value: 25.38 +/- 0.22 x 10^3 mm'-3); assay type: organism-based; design: dose 300 mg/kg, route intraperitoneal; conditions: in vivo, 504 h
Mus musculus [29] = assay: Toxicity in nude BALB/c mouse xenografted with human HT-29 cells assessed as effect on ALP level at 150 mg/kg, ip qd after 21 days (reference value: 107.6 +/- 0.8 IU/L); assay type: organism-based; design: dose 150 mg/kg, route intraperitoneal; conditions: in vivo, 504 h
Mus musculus [30] = assay: Toxicity in nude BALB/c mouse xenografted with human HT-29 cells assessed as effect on platelet count at 100 mg/kg, ip qd after 21 days (reference value: 1509 +/- 34 x 10^3 mm'-3); assay type: organism-based; design: dose 100 mg/kg, route intraperitoneal; conditions: in vivo, 504 h
Mus musculus [31] = assay: Toxicity in nude BALB/c mouse xenografted with human HT-29 cells assessed as effect on platelet count at 150 mg/kg, ip qd after 21 days (reference value: 1509 +/- 34 x 10^3 mm'-3); assay type: organism-based; design: dose 150 mg/kg, route intraperitoneal; conditions: in vivo, 504 h
Mus musculus [32] = assay: Toxicity in nude BALB/c mouse xenografted with human HT-29 cells assessed as effect on ALT level at 300 mg/kg, ip qd after 21 days (reference value: 28 +/- 0.4 IU/L); assay type: organism-based; design: dose 300 mg/kg, route intraperitoneal; conditions: in vivo, 504 h
Mus musculus [33] = assay: Toxicity in nude BALB/c mouse xenografted with human HT-29 cells assessed as effect on ALT level at 150 mg/kg, ip qd after 21 days (reference value: 28 +/- 0.4 IU/L); assay type: organism-based; design: dose 150 mg/kg, route intraperitoneal; conditions: in vivo, 504 h
Mus musculus [34] = assay: Toxicity in nude BALB/c mouse xenografted with human HT-29 cells assessed as body weight change at 300 mg/kg, ip qd after 21 days (reference value: 2.7 g); assay type: organism-based; design: dose 300 mg/kg, route intraperitoneal; conditions: in vivo, 504 h
Mus musculus [35] = assay: Toxicity in ICR mouse assessed as mortality at 150 to 600 mg/kg, ip administered on day 1; assay type: organism-based; design: dose 150-600 mg/kg, route intraperitoneal; conditions: in vivo
Mus musculus [36] = assay: Toxicity in nude BALB/c mouse xenografted with human HT-29 cells assessed as change in kidney morphology at 100 to 300 mg/kg, ip qd after 21 days relative to vehicle-treated control; assay type: organism-based; design: dose 100-300 mg/kg, route intraperitoneal; conditions: in vivo, 504 h
CCRF-CEM = assay: Cytotoxicity against human CEM cells after 72 hrs by MTT assay; assay type: functional, cell-based
Mus musculus [37] = assay: Toxicity in nude BALB/c mouse xenografted with human HT-29 cells assessed as mortality at 150 mg/kg, ip qd after 21 days; assay type: organism-based; design: dose 150 mg/kg, route intraperitoneal; conditions: in vivo, 504 h

## COc1ccc2c(c1)CCC(=O)/C2=C/c1cc(OC)c(OC)c(OC)c1
HCT-116 [1]
  Activity: 74%
Mus musculus [2]
  Activity: Non-toxic
Mus musculus [3]
  Activity: 24 IU/L
MDA-MB-435
  IC50: 1 nM
HT-29 [4]
  T/C: 45%
Mus musculus [5]
  Activity: 8.87 ×10³ /mm3
Mus musculus [6]
  Activity: 107.6 IU/L
Mus musculus [7]
  Activity: 3 g
HT-29 [8]
  T/C: 34%
HCT-116 [9]
  Activity: Dose-dependent effect
Mus musculus [10]
  Activity: Non-toxic
HT-29 [11]
  T/C: 52%
HCT-116 [12]
  Activity: Dose-dependent effect
HT-29 [13]
  IC50: 10 nM
K562
  IC50: 1 nM
Mus musculus [14]
  Activity: 10.03 ×10³ /mm3
ZR-75-30
  IC50: 10 nM
Mus musculus [15]
  Activity: 11.08 ×10³ /mm3
Mus musculus [16]
  Activity: 20.18 ×10³ /mm3
Mus musculus [17]
  Activity: 24.42 ×10³ /mm3
Tubulin
  IC50: 3930 nM
Mus musculus [18]
  Activity: 1240 ×10³ /mm3
HCT-116 [19]
  Activity: 17%
Mus musculus [20]
  Activity: 2.3 g
Mus musculus [21]
  Activity: 112 IU/L
HT-29 [22]
  Activity: Dose-dependent effect
Mus musculus [23]
  Activity: Non-toxic
HCT-116 [24]
  IC50: 100 nM
Mus musculus [25]
  Activity: Non-toxic
HCT-116 [26]
  Activity: Dose-dependent effect
Mus musculus [27]
  Activity: Non-toxic
Mus musculus [28]
  Activity: 19.96 ×10³ /mm3
Mus musculus [29]
  Activity: 116.3 IU/L
Mus musculus [30]
  Activity: 1440 ×10³ /mm3
Mus musculus [31]
  Activity: 1375 ×10³ /mm3
Mus musculus [32]
  Activity: 26 IU/L
Mus musculus [33]
  Activity: 28 IU/L
Mus musculus [34]
  Activity: 2.6 g
Mus musculus [35]
  Activity: Non-toxic
Mus musculus [36]
  Activity: Non-toxic
CCRF-CEM
  IC50: 1 nM
Mus musculus [37]
  Activity: Non-toxic
